Measured values as given in ChEMBL document CHEMBL1201862, “PubChem BioAssay data set” (2004).
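96-well plates; 48 h exposure; 5 concentrations. Endpoints by linear interpolation between flanking doses. Not reached: highest tested concentration assigned. The concentration for 50% growth inhibition is given as GI50.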 Calls of active or inactive are those of the source. Rule as the data show it: active = GI50 up to about 1.1 µM and inactive = higher.

Key:
Assay in all cases: inhibition of tumour cell growth, NCI panel, 48 h
786-0 = tested on: 786-0
A498 = tested on: A498
COLO 205 = tested on: COLO 205
DU-145 = tested on: DU-145
HCT-15 = tested on: HCT-15
HL-60 = tested on: HL-60
HT-29 = tested on: HT-29
KM12 = tested on: KM12
M14 = tested on: M14
Malme-3M = tested on: Malme-3M
OVCAR-3 = tested on: OVCAR-3
OVCAR-5 = tested on: OVCAR-5
RXF 393 = tested on: RXF 393
SF-539 = tested on: SF-539
SN12C = tested on: SN12C
SW-620 = tested on: SW-620
TK-10 = tested on: TK-10
UACC-257 = tested on: UACC-257
CAKI-1 = tested on: CAKI-1
SK-MEL-2 = tested on: SK-MEL-2

| Compound | GI50 (786-0) | GI50 (A498) | GI50 (COLO 205) | GI50 (DU-145) | GI50 (HCT-15) | GI50 (HL-60) | GI50 (HT-29) | GI50 (KM12) | GI50 (M14) | GI50 (Malme-3M) | GI50 (OVCAR-3) | GI50 (OVCAR-5) | GI50 (RXF 393) | GI50 (SF-539) | GI50 (SN12C) | GI50 (SW-620) | GI50 (TK-10) | GI50 (UACC-257) | GI50 (CAKI-1) | GI50 (SK-MEL-2) |
| --- | --- | --- | --- | --- | --- | --- | --- | --- | --- | --- | --- | --- | --- | --- | --- | --- | --- | --- | --- | --- |
| O=C(Nn1c(-c2ccccc2)nc2ccccc2c1=O)c1ccc([N+](=O)[O-])cc1 | > 100 µM (inactive) | 46.7 µM (inactive) | > 100 µM (inactive) | > 100 µM (inactive) | > 100 µM | > 100 µM (inactive) | > 100 µM (inactive) | > 100 µM (inactive) | > 100 µM (inactive) | > 100 µM (inactive) | > 100 µM (inactive) | > 100 µM (inactive) | 49.2 µM (inactive) | > 100 µM (inactive) | > 100 µM (inactive) | > 100 µM (inactive) | > 100 µM (inactive) | > 100 µM (inactive) | – | – |
| O=C(/C=C/c1ccsc1)c1ccc(Cl)cc1 | 89.5 µM (inactive) | 45 µM (inactive) | > 100 µM (inactive) | > 100 µM (inactive) | 39.7 µM | 19.1 µM (inactive) | 36.5 µM (inactive) | 35.3 µM (inactive) | 80.7 µM (inactive) | 33.1 µM (inactive) | – | 56.1 µM (inactive) | – | 76.7 µM (inactive) | 43.4 µM (inactive) | 33.6 µM (inactive) | > 100 µM (inactive) | > 100 µM (inactive) | > 100 µM (inactive) | > 100 µM (inactive) |
| CCO/C(Cc1ccc(Cl)cc1)=N/NC(N)=S | > 100 µM (inactive) | > 100 µM (inactive) | > 100 µM (inactive) | > 100 µM (inactive) | > 100 µM | – | > 100 µM (inactive) | > 100 µM (inactive) | > 100 µM (inactive) | > 100 µM (inactive) | > 100 µM (inactive) | > 100 µM (inactive) | – | > 100 µM (inactive) | > 100 µM (inactive) | > 100 µM (inactive) | > 100 µM (inactive) | > 100 µM (inactive) | > 100 µM (inactive) | > 100 µM (inactive) |
| Oc1nc(S)nc2nc3c4cccnc4c4ccccc4c3nc12 | > 100 µM (inactive) | > 100 µM (inactive) | > 100 µM (inactive) | > 100 µM (inactive) | > 100 µM | 30.9 µM (inactive) | > 100 µM (inactive) | 79.8 µM (inactive) | > 100 µM (inactive) | > 100 µM (inactive) | > 100 µM (inactive) | > 100 µM (inactive) | 49.8 µM (inactive) | > 100 µM (inactive) | > 100 µM (inactive) | > 100 µM (inactive) | > 100 µM (inactive) | > 100 µM (inactive) | > 100 µM (inactive) | – |
| Cc1cc(C)c(C2=NOC(c3ccccc3)(c3cc(=O)n(-c4ccccc4)s3)O2)c(C)c1 (centres undefined) | 19 µM (inactive) | > 100 µM (inactive) | 23.6 µM (inactive) | 32.1 µM (inactive) | 19.3 µM | 22.1 µM (inactive) | 18.8 µM (inactive) | 37 µM (inactive) | 27 µM (inactive) | 18.8 µM (inactive) | – | 18 µM (inactive) | 17.3 µM (inactive) | – | 33 µM (inactive) | 26.4 µM (inactive) | 25.1 µM (inactive) | 38.9 µM (inactive) | 17.2 µM (inactive) | 28 µM (inactive) |
| CCOC(=O)CCC(NC(=O)N1CCN(c2c(C)nc(C)nc2O)CC1)C(=O)OCC (centres undefined) | > 100 µM (inactive) | > 100 µM (inactive) | > 100 µM (inactive) | > 100 µM (inactive) | > 100 µM | > 100 µM (inactive) | > 100 µM (inactive) | > 100 µM (inactive) | > 100 µM (inactive) | > 100 µM (inactive) | > 100 µM (inactive) | > 100 µM (inactive) | > 100 µM (inactive) | > 100 µM (inactive) | > 100 µM (inactive) | > 100 µM (inactive) | > 100 µM (inactive) | > 100 µM (inactive) | > 100 µM (inactive) | – |
| CC(C)(C)OC(=O)N1C/C=C\C(=O)C2(OCCO2)c2ccccc21 | 23.9 µM (inactive) | > 100 µM (inactive) | 17.7 µM (inactive) | 28.6 µM (inactive) | 31.7 µM | – | 19.2 µM (inactive) | 31.6 µM (inactive) | 20.7 µM (inactive) | 22.7 µM (inactive) | 15.7 µM (inactive) | > 100 µM (inactive) | 21.2 µM (inactive) | 22.1 µM (inactive) | 26.5 µM (inactive) | 25.1 µM (inactive) | 24.3 µM (inactive) | 20.8 µM (inactive) | 33.7 µM (inactive) | 24.5 µM (inactive) |
| Nc1sccc1S(=O)(=O)c1ccsc1N | > 100 µM (inactive) | > 100 µM (inactive) | > 100 µM (inactive) | > 100 µM (inactive) | > 100 µM | – | > 100 µM (inactive) | > 100 µM (inactive) | > 100 µM (inactive) | > 100 µM (inactive) | > 100 µM (inactive) | > 100 µM (inactive) | – | > 100 µM (inactive) | > 100 µM (inactive) | > 100 µM (inactive) | > 100 µM (inactive) | > 100 µM (inactive) | > 100 µM (inactive) | > 100 µM (inactive) |
| CCNCC(O)COc1ccc2c(c1)[n+]([O-])nc(N)[n+]2[O-] (centres undefined) | 51.6 µM (inactive) | 27.8 µM (inactive) | 68.9 µM (inactive) | 71.3 µM (inactive) | 63.7 µM | 43.1 µM (inactive) | 68.9 µM (inactive) | 59.3 µM (inactive) | 40.7 µM (inactive) | – | > 100 µM (inactive) | > 100 µM (inactive) | – | 37.3 µM (inactive) | 45.4 µM (inactive) | 32.7 µM (inactive) | > 100 µM (inactive) | > 100 µM (inactive) | 26.9 µM (inactive) | 39.6 µM (inactive) |
| COc1cc2c(cc1OCc1ccccc1)NC(=O)[C@@H]1C[C@@H](O)CN1C2=O | > 100 µM (inactive) | > 100 µM (inactive) | > 100 µM (inactive) | > 100 µM (inactive) | > 100 µM | – | > 100 µM (inactive) | > 100 µM (inactive) | > 100 µM (inactive) | > 100 µM (inactive) | > 100 µM (inactive) | > 100 µM (inactive) | > 100 µM (inactive) | > 100 µM (inactive) | > 100 µM (inactive) | > 100 µM (inactive) | > 100 µM (inactive) | > 100 µM (inactive) | > 100 µM (inactive) | > 100 µM (inactive) |
| CC1=NC(=Cc2ccc(O)cc2)C(=O)N1n1c(-c2ccccc2)nc2ccccc2c1=O | > 100 µM (inactive) | > 100 µM (inactive) | > 100 µM (inactive) | > 100 µM (inactive) | > 100 µM | > 100 µM (inactive) | > 100 µM (inactive) | > 100 µM (inactive) | > 100 µM (inactive) | > 100 µM (inactive) | – | – | – | > 100 µM (inactive) | > 100 µM (inactive) | > 100 µM (inactive) | > 100 µM (inactive) | > 100 µM (inactive) | > 100 µM (inactive) | – |
| CC1(C)C(/C=N\O)=[N+]([O-])C(C)(C)N1O | > 100 µM (inactive) | – | > 100 µM (inactive) | > 100 µM (inactive) | > 100 µM | 31.6 µM (inactive) | 54.3 µM (inactive) | > 100 µM (inactive) | > 100 µM (inactive) | > 100 µM (inactive) | 49.7 µM (inactive) | > 100 µM (inactive) | > 100 µM (inactive) | > 100 µM (inactive) | > 100 µM (inactive) | > 100 µM (inactive) | > 100 µM (inactive) | > 100 µM (inactive) | > 100 µM (inactive) | > 100 µM (inactive) |
| O=C1C=C(c2ccccc2)O/C1=C/C(=O)c1ccc(Cl)cc1 | 15.9 µM (inactive) | 23.4 µM (inactive) | 16.1 µM (inactive) | 37.3 µM (inactive) | 22 µM | 1.66 µM (inactive) | 18.2 µM (inactive) | 20.8 µM (inactive) | 19 µM (inactive) | 17.2 µM (inactive) | 17.5 µM (inactive) | 17.6 µM (inactive) | 18.9 µM (inactive) | 17.8 µM (inactive) | 16 µM (inactive) | 11.7 µM (inactive) | 20.2 µM (inactive) | 20.7 µM (inactive) | 14 µM (inactive) | – |
| N#Cc1c(N2CCC(O)C2)c2ccccc2n2c1nc1ccccc12 (centres undefined) | 17.1 µM (inactive) | 31.3 µM (inactive) | > 100 µM (inactive) | > 100 µM (inactive) | > 100 µM | > 100 µM (inactive) | > 100 µM (inactive) | > 100 µM (inactive) | > 100 µM (inactive) | 40.4 µM (inactive) | > 100 µM (inactive) | > 100 µM (inactive) | – | 54.8 µM (inactive) | 72.4 µM (inactive) | > 100 µM (inactive) | 51.1 µM (inactive) | > 100 µM (inactive) | 37.9 µM (inactive) | 43.4 µM (inactive) |
| CN(C)C(Cc1c[nH]cn1)C(=O)N1CCCC1C(N)=O (centres undefined) | > 100 µM (inactive) | 22.9 µM (inactive) | > 100 µM (inactive) | > 100 µM (inactive) | > 100 µM | > 100 µM (inactive) | > 100 µM (inactive) | > 100 µM (inactive) | > 100 µM (inactive) | > 100 µM (inactive) | > 100 µM (inactive) | > 100 µM (inactive) | > 100 µM (inactive) | – | > 100 µM (inactive) | > 100 µM (inactive) | > 100 µM (inactive) | – | > 100 µM (inactive) | – |
